According to patent publication US20120040977A1, “INHIBITORS OF HCV NS5A” (PRESIDIO PHARMACEUTICALS, INC., priority 2009, published 2012):
pEC50: −log10 of the molar value.

Test system: HCV genotype 1b replicon
Assay: HCV replicon assay (HCV 1b_Huh-Luc/Neo-ET cell line, luciferase readout)
Format: cell-based
Conditions: Hepatitis C virus; bicistronic genotype 1b replicon in Huh 7 cells, 72 h incubation, luciferase enzyme activity; read-out: Inhibition of HCV genotype 1b
Method: Biological activity of the compounds of the invention was determined using an HCV replicon assay. The HCV 1b_Huh-Luc/Neo-ET cell line persistently expressing a bicistronic genotype 1b replicon in Huh 7 cells was obtained from ReBLikon GMBH. This cell line was used to test compound inhibition using luciferase enzyme activity readout as a measurement of compound inhibition of replicon levels.
On Day 1 (the day after plating cells), each compound is added in triplicate to the cells. Plates are incubated for 72 h prior to determining luciferase levels. Enzyme activity was measured using a Bright-Glo Kit (cat. number E2620) manufactured by Promega Corporation. The following equation was used to generate a percent control value for each compound.
% Control=(Average Compound Value/Average Control)*100
The EC50 value was determined using GraphPad Prism and the following equation:
Y=Bottom+(Top−Bottom)/(1+10̂((LogIC50−X)*HillSlope))
EC50 values of compounds are determined several times in the replicon assay. […]

## COC(=O)N[C@H](C(=O)N1CCC[C@H]1C(=O)N[C@H](C)c1ccc(-c2ccc(-c3cnc([C@@H]4CCCN4C(=O)[C@@H](NC(=O)OC)C4CCOCC4)[nH]3)cc2)cc1)C1CCOCC1 [Compound 103]
  pEC50: 6.00 to 8.00

## O=C(NC[C@@H]1CCCN1C(=O)[C@H](NC(=O)N1CCOCC1)c1ccccc1)c1ccc(-c2ccc(-c3cnc([C@@H]4CCCN4C(=O)[C@H](NC(=O)N4CCOCC4)c4ccccc4)[nH]3)cc2)cc1 [Compound 56]
  pEC50: > 9.00

## CC(C)(C)OC(=O)N[C@@H](C(=O)N1CCC[C@H]1C(=O)Nc1ccc(-c2ccc(-c3cnc([C@@H]4COCCN4C(=O)[C@H](NC(=O)OC(C)(C)C)c4ccccc4)[nH]3)cc2)cc1)c1ccccc1 [Compound 8]
  pEC50: > 9.00

## COC(=O)N[C@@H](C(=O)N1CCC[C@H]1CNC(=O)c1ccc(-c2ccc(-c3cnc([C@@H]4CCCN4C(=O)[C@H](NC(=O)OC)c4ccccc4)[nH]3)nc2)cc1)c1ccccc1 [Compound 91]
  pEC50: > 9.00

## CC(C)(C)OC(=O)N[C@@H](C(=O)N1CCOC[C@H]1C(=O)Nc1ccc(-c2ccc(-c3cnc([C@@H]4COCCN4C(=O)[C@H](NC(=O)OC(C)(C)C)c4ccccc4)[nH]3)cc2)cc1)c1ccccc1 [Compound 16]
  pEC50: > 9.00

## COC(=O)N[C@@H](C(=O)N1CCC[C@H]1CNC(=O)c1ccc(-c2ccc(-c3cnc([C@@H]4CCCN4C(=O)[C@H](NC(=O)N4CCN(C)CC4)c4ccccc4)[nH]3)cc2)cc1)c1ccccc1 [Compound 68]
  pEC50: > 9.00

## COC(=O)N[C@@H](C(=O)N1CCC[C@H]1CNC(=O)c1ccc(-c2ccc(-c3cnc([C@@H]4CCCN4C(=O)[C@@H](c4ccccc4)N4CCCCC4)[nH]3)cc2)cc1)c1ccccc1 [Compound 61]
  pEC50: > 9.00

## COC(=O)N[C@@H](C(=O)N1CCC[C@H]1c1ncc(-c2ccc(-c3ccc(C(=O)NC[C@@H]4CCCN4C(=O)[C@@H](c4ccccc4)N4CCOCC4)cc3)cc2)[nH]1)c1ccccc1 [Compound 63]
  pEC50: > 9.00

## COC(=O)N[C@H](C(=O)N1CCC[C@H]1C(=O)N[C@@H](C)c1ccc(-c2ccc(-c3cnc([C@@H]4CCCN4C(=O)[C@@H](NC(=O)OC)[C@@H](C)OC)[nH]3)cc2)cc1)[C@@H](C)OC [Compound 100]
  pEC50: > 9.00

## O=C(N[C@@H](C(=O)N1CCC[C@H]1COc1ccc(-c2ccc(-c3cnc([C@@H]4CCCN4C(=O)[C@H](NC(=O)N4CCOCC4)c4ccccc4)[nH]3)cc2)cc1)c1ccccc1)N1CCOCC1 [Compound 32]
  pEC50: > 9.00

## C[C@@H](NC(=O)OC(C)(C)C)C(=O)N1CCC[C@H]1C(=O)Nc1ccc(-c2ccc(-c3cnc([C@@H]4CCCN4C(=O)[C@@H](C)NC(=O)OC(C)(C)C)[nH]3)cc2)cc1 [Compound 14]
  pEC50: 8.00 to 9.00

## CC(C)[C@@H](NC(=O)C1CC1)C(=O)N1CCOC[C@H]1C(=O)Nc1ccc(-c2ccc(-c3cnc([C@@H]4CCCN4C(=O)[C@H](NC(=O)C4CC4)C(C)C)[nH]3)cc2)cc1 [Compound 23]
  pEC50: 8.00 to 9.00

## COC(=O)N[C@H](C(=O)N1CCC[C@H]1CNC(=O)c1ccc(-c2ccc(-c3cnc([C@@H]4CCCN4C(=O)[C@@H](NC(=O)OC)C(C)C)[nH]3)cn2)cc1)C(C)C [Compound 78]
  pEC50: > 9.00

## C[C@H](NC(=O)[C@@H]1CCCN1C(=O)[C@H](NC(=O)C1CC1)c1ccccc1)c1ccc(-c2ccc(-c3cnc([C@@H]4CCCN4C(=O)[C@H](NC(=O)C4CC4)c4ccccc4)[nH]3)cc2)cc1 [Compound 37]
  pEC50: > 9.00

## C[C@@H](NC(=O)[C@@H]1CCCN1C(=O)[C@H](NC(=O)N1CCN(C)CC1)c1ccccc1)c1ccc(-c2ccc(-c3cnc([C@@H]4CCCN4C(=O)[C@H](NC(=O)N4CCN(C)CC4)c4ccccc4)[nH]3)cc2)cc1 [Compound 42]
  pEC50: 8.00 to 9.00

## COC(=O)N[C@H](C(=O)N1CCC[C@H]1C(=O)NCc1ccc(-c2ccc(-c3cnc([C@@H]4CCCN4C(=O)[C@@H](NC(=O)OC)C4CCOCC4)[nH]3)cc2)cc1)C1CCOCC1 [Compound 107]
  pEC50: 6.00 to 8.00

## COC(=O)N[C@H](C(=O)N1CCC[C@H]1c1nc2c([nH]1)-c1ccc(-c3ccc(C(=O)NC[C@@H]4CCCN4C(=O)[C@H](NC(=O)OC)c4ccccc4)cc3)cc1CC2)C(C)C [Compound 85]
  pEC50: > 9.00
